In ChEMBL document CHEMBL4417631, “Oral peptide inhibitors of interleukin-23 receptor and their use to treat inflammatory bowel diseases” (2017):

Legend:
[1] = biological target: T1, Interleukin-23 receptor (Homo sapiens, UniProt Q5VWK5); assay: Inhibition of interleukin-23 receptor in human DB cells assessed as reduction in IL-23-stimulated STAT3 phosphorylation incubated for 30 mins by HTRF assay; format: cell-based
T1 sequence (Q5VWK5 whole entry): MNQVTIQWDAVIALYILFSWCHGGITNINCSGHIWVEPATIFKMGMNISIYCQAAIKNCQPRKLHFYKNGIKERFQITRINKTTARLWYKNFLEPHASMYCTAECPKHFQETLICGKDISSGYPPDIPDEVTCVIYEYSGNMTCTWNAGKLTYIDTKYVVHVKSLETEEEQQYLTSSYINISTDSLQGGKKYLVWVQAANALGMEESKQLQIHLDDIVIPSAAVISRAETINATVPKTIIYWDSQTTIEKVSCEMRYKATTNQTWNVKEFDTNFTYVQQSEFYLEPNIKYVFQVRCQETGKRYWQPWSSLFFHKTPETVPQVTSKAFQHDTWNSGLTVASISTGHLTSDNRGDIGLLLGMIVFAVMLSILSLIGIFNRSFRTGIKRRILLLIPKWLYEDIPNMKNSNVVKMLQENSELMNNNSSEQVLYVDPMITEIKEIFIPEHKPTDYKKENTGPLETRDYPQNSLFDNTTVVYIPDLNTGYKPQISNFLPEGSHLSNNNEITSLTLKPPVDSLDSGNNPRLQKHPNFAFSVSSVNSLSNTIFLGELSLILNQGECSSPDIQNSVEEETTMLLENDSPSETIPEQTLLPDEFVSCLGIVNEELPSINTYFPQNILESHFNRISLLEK

[2] = Half life in simulated gastric fluid at 20 uM by LC-MS/MS analysis; format: ADME
[3] = Half life in simulated intestinal fluid at 20 uM by LC-MS/MS analysis; format: ADME
[4] = biological target: T1, Interleukin-23 receptor; assay: Inhibition of interleukin-23 binding to human interleukin-23 receptor incubated for 2 hrs by competitive binding ELISA

SMILES	IC50 [1] [nM]	half-life at 20 µM [2] [h]	half-life at 20 µM [3] [h]	IC50 [4] [nM]
COc1ccc(C[C@H](NC(=O)[C@@H](NC(=O)[C@H](CCC(N)=O)NC(=O)[C@H](Cc2c[nH]c3ccccc23)NC(=O)[C@@H](NC(=O)[C@H](CC(N)=O)NC(=O)[C@@H](NC(C)=O)C(C)(C)S)[C@@H](C)O)C(C)(C)S)C(=O)N[C@@H](Cc2ccc3ccccc3c2)C(=O)NC(C)(C)C(=O)N[C@@H](CCCCNC(C)=O)C(=O)N[C@@H](CC(N)=O)C(=O)N[C@@H](CC(N)=O)C(N)=O)cc1	< 10	> 6	> 6	
CC(=O)N[C@H](C(=O)N[C@@H](CCC(N)=O)C(=O)N[C@H](C(=O)N[C@@H](Cc1c[nH]c2ccccc12)C(=O)N[C@@H](CCC(N)=O)C(=O)N[C@H](C(=O)N[C@@H](Cc1ccc(OCCN)cc1)C(=O)N[C@@H](Cc1ccc2ccccc2c1)C(=O)N[C@@H](CCC(C)C)C(=O)N[C@@H](CCC(=O)O)C(=O)N[C@@H](CC(N)=O)C(=O)N[C@@H](C)C(N)=O)C(C)(C)S)[C@@H](C)O)C(C)(C)S	10 to 25	< 1	< 1	
CC(=O)NCCCC[C@H](NC(=O)C(C)(C)NC(=O)[C@H](Cc1ccc2ccccc2c1)NC(=O)[C@H](Cc1ccc(OCCN)cc1)NC(=O)[C@@H](NC(=O)[C@H](CCC(N)=O)NC(=O)[C@H](Cc1c[nH]c2ccccc12)NC(=O)[C@@H](NC(=O)[C@@H](NC(=O)[C@@H](NC(C)=O)C(C)(C)S)[C@@H](C)O)[C@@H](C)O)C(C)(C)S)C(=O)N[C@@H](CC(N)=O)C(=O)N[C@@H](CC(N)=O)C(N)=O	< 10	> 6	> 6	
COc1ccc(C[C@H](NC(=O)[C@@H]2CSCC[C@H](NC(C)=O)C(=O)N[C@@H](CCC(N)=O)C(=O)N[C@@H]([C@@H](C)O)C(=O)N[C@@H](Cc3c[nH]c4ccccc34)C(=O)N[C@@H](CCC(N)=O)C(=O)N2)C(=O)N[C@@H](Cc2ccc3ccccc3c2)C(=O)N[C@H](C(=O)N[C@@H](CCCCNC(C)=O)C(=O)N[C@@H](CC(N)=O)C(=O)NCC(N)=O)C2CCCCC2)cc1		3 to 6	2 to 6	25 to 100
CC(=O)NCCCC[C@](C)(NC(=O)[C@H](Cc1ccc2ccccc2c1)NC(=O)[C@H](Cc1ccc(OCCNC(C)=O)cc1)NC(=O)[C@@H](NC(=O)[C@H](CCC(N)=O)NC(=O)[C@H](Cc1c[nH]c2ccccc12)NC(=O)[C@@H](NC(=O)[C@](C)(CCCNC(C)=O)NC(=O)[C@@H](NC(C)=O)C(C)(C)S)[C@@H](C)O)C(C)(C)S)C(=O)N[C@@H](CCC(=O)O)C(=O)N[C@@H](CC(N)=O)C(=O)NCC(N)=O		3 to 6	1 to 2	100 to 1000
CC(=O)NCCCC[C@H](NC(=O)[C@H](CCC(C)C)NC(=O)[C@H](Cc1ccc2ccccc2c1)NC(=O)[C@H](Cc1ccc(OCCN)cc1)NC(=O)[C@@H](NC(=O)[C@H](CCC(N)=O)NC(=O)[C@H](Cc1c[nH]c2ccccc12)NC(=O)[C@@H](NC(=O)[C@H](CC(N)=O)NC(=O)[C@@H](NC(C)=O)C(C)(C)S)[C@@H](C)O)C(C)(C)S)C(=O)N[C@@H](CC(N)=O)C(=O)NCCC(N)=O	< 10	< 1	< 1	
CC(=O)NCCCC[C@H](NC(=O)C(C)(C)NC(=O)[C@H](Cc1ccc2ccccc2c1)NC(=O)[C@H](Cc1ccc(OCCN)cc1)NC(=O)[C@@H](NC(=O)[C@H](CCC(N)=O)NC(=O)[C@H](Cc1c[nH]c2ccccc12)NC(=O)[C@@H](NC(=O)[C@H](CC(N)=O)NC(=O)[C@@H](NC(C)=O)C(C)(C)S)[C@@H](C)O)C(C)(C)S)C(=O)N[C@@H](CC(N)=O)C(=O)N[C@@H](CCC(N)=O)C(N)=O	< 10	> 6	> 6	
COc1ccc(C[C@H](NC(=O)[C@@H](NC(=O)[C@H](CCC(N)=O)NC(=O)[C@H](Cc2c[nH]c3ccccc23)NC(=O)[C@@H](NC(=O)[C@H](CC(N)=O)NC(=O)[C@@H](NC(C)=O)C(C)(C)S)[C@@H](C)O)C(C)(C)S)C(=O)N[C@@H](Cc2ccc3ccccc3c2)C(=O)NC2(C(=O)N[C@@H](CCCCNC(C)=O)C(=O)N[C@@H](CC(N)=O)C(=O)N[C@@H](CC(N)=O)C(N)=O)CCCCC2)cc1		> 6	3 to 6	
CC(=O)NCCCC[C@H](NC(=O)C1(NC(=O)[C@H](Cc2ccc3ccccc3c2)NC(=O)[C@H](Cc2ccc(C(N)=O)cc2)NC(=O)[C@@H](NC(=O)[C@H](CCC(N)=O)NC(=O)[C@H](Cc2c[nH]c3ccccc23)NC(=O)[C@@H](NC(=O)[C@H](CC(N)=O)NC(=O)[C@@H](NC(C)=O)C(C)(C)S)[C@@H](C)O)C(C)(C)S)CCCCC1)C(=O)N[C@@H](CC(N)=O)C(=O)N[C@@H](CC(N)=O)C(N)=O		> 6	> 6	
CC(=O)NCCCC[C@H](NC(=O)C1(NC(=O)[C@H](Cc2ccc3ccccc3c2)NC(=O)[C@H](Cc2ccc(C(N)=O)cc2)NC(=O)[C@@H](NC(=O)[C@H](CCC(N)=O)NC(=O)[C@H](Cc2c[nH]c3ccccc23)NC(=O)[C@@H](NC(=O)[C@H](CC(N)=O)NC(=O)[C@@H](NC(C)=O)C(C)(C)S)[C@@H](C)O)C(C)(C)S)CCCC1)C(=O)N[C@@H](CC(N)=O)C(=O)N[C@@H](CC(N)=O)C(N)=O		> 6	> 6	
COc1ccc(C[C@H](NC(=O)[C@@H](NC(=O)[C@H](CCC(N)=O)NC(=O)[C@H](Cc2c[nH]c3ccccc23)NC(=O)[C@@H](NC(=O)[C@H](CC(N)=O)NC(=O)[C@@H](NC(C)=O)C(C)(C)S)[C@@H](C)O)C(C)(C)S)C(=O)N[C@@H](Cc2ccc3ccccc3c2)C(=O)NC2(C(=O)N[C@@H](CCCCNC(C)=O)C(=O)N[C@@H](CC(N)=O)C(=O)N[C@@H](CC(N)=O)C(N)=O)CCOCC2)cc1		> 6	> 6	
CC(=O)N[C@@H](Cc1ccccc1)C(=O)N[C@H]1CCSC[C@@H](C(=O)N[C@@H](Cc2ccc(OCCN)cc2)C(=O)N[C@@H](Cc2ccc3ccccc3c2)C(=O)N[C@@](C)(CCCCN)C(=O)N[C@@H](CCC(=O)O)C(=O)N[C@@H](CC(N)=O)C(=O)N[C@@H](CC(N)=O)C(N)=O)NC(=O)[C@H](CCC(N)=O)NC(=O)[C@H](Cc2c[nH]c3ccccc23)NC(=O)[C@H]([C@@H](C)O)NC(=O)[C@H](CCC(N)=O)NC1=O		2 to 3	1 to 2	
CC(=O)NCCCC[C@H](NC(=O)C1(NC(=O)[C@H](Cc2ccc3ccccc3c2)NC(=O)[C@H](Cc2ccc(C(N)=O)cc2)NC(=O)[C@@H](NC(=O)[C@H](CCC(N)=O)NC(=O)[C@H](Cc2c[nH]c3ccccc23)NC(=O)[C@@H](NC(=O)[C@H](CC(N)=O)NC(=O)[C@@H](NC(C)=O)C(C)(C)S)[C@@H](C)O)C(C)(C)S)CCOCC1)C(=O)N[C@@H](CC(N)=O)C(=O)N[C@@H](CC(N)=O)C(N)=O		3 to 6	> 6	
CC(=O)NCCCC[C@H](NC(=O)C(C)(C)NC(=O)[C@H](Cc1ccc2ccccc2c1)NC(=O)[C@H](Cc1ccc(OCCN)cc1)NC(=O)[C@@H](NC(=O)[C@H](CCC(N)=O)NC(=O)[C@H](Cc1c[nH]c2ccccc12)NC(=O)[C@@H](NC(=O)[C@H](CC(N)=O)NC(=O)[C@@H](NC(=O)[C@@H](Cc1ccccc1)NC(C)=O)C(C)(C)S)[C@@H](C)O)C(C)(C)S)C(=O)N[C@@H](CC(N)=O)C(=O)N[C@@H](CC(N)=O)C(N)=O		> 6	> 6	
